Results taken from US20250049970A1, “DLL3 TARGETING PEPTIDES AND CONSTRUCTS THEREOF” (MARIANA ONCOLOGY INC., priority 2023, published 2025).
*1 amine or outer side, *2 acyl side, *3 side chain or, on linkers, in order; H or OH if unused. Where a SMILES comes first, the peptide text is derived from it. Bridges are numbered along the chain shown (N, C = ends). Roman numbers before positions name the chains, in order. [ ]: non-standard residue; d: D form. The star is where a group is joined. X9 = CSCC[C@H](NC(=O)c1ccc(CNC(=O)CN2CCN(CC(=O)O)CCN(CC(=O)O)CCN(CC(=O)O)CC2)cc1)C(=O)N[C@H](C(=O)N[C@@H](CCCCN*)C(=O)O)C(C)C; X7 = O=C(O)CN1CCN(CC(=O)O)CCN(CC(=O)N[C@H]2CC[C@H](CC(=O)*)CC2)CCN(CC(=O)O)CC1; Ala(piperidin-4-yl) = O=C([C@H](CC1CCN([*:3])CC1)N[*:1])[*:2]; DOTA = O=C(O)CN1CCN(CC(=O)O)CCN(CC(=O)*)CCN(CC(=O)O)CC1; Me3N+(CH2)2O(CH2)2O(CH2)2CO = C[N+](C)(C)CCOCCOCCC(=O)*; Trp(7-OMe) = COc1cccc2c(C[C@H](N)C(=O)O)c[nH]c12; Phe(4-CF3) = N[C@@H](Cc1ccc(C(F)(F)F)cc1)C(=O)O; Phe(4-F) = N[C@@H](Cc1ccc(F)cc1)C(=O)O; 2Nal = N[C@@H](Cc1ccc2ccccc2c1)C(=O)O; NMetBuAla = CN[C@@H](CC(C)(C)C)C(=O)O; tBuAla = CC(C)(C)C[C@H](N)C(=O)O; Chg = N[C@H](C(=O)O)C1CCCCC1; NMeNle = CCCC[C@H](NC)C(=O)O; Tle = CC(C)(C)[C@H](N)C(=O)O; CH2 = C([*:1])[*:2]

molecular target: T1, DLL3 (Homo sapiens, UniProt Q9NYJ7); experiment: SPR KD, biotinylated human DLL3 on streptavidin chip (Table 8); design: biotin (biotinylated); conditions: SPR KD, biotinylated human DLL3 on streptavidin sensor chip, 25° C., 1:1 binding model
T1 sequence (Q9NYJ7 27-618): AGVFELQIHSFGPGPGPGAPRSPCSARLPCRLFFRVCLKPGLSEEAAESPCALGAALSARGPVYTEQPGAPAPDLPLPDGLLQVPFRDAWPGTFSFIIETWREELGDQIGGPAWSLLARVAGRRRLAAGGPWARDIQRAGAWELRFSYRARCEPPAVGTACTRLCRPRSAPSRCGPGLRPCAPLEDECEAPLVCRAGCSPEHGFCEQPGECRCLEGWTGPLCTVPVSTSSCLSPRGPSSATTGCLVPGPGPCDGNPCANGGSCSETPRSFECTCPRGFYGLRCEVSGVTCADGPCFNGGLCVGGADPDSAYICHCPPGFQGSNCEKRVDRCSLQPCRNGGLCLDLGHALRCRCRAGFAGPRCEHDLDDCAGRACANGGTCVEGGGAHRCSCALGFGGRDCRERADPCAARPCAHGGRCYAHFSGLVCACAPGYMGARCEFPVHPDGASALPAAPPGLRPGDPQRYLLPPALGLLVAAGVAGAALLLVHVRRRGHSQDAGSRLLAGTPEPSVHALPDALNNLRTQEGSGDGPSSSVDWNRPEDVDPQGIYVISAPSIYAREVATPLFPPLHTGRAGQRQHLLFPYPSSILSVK
Excerpt: Biotinylated target ligand human DLL3 was immobilized on a streptavidin sensor chip. A reference surface was set up for nonspecific binding and refractive index changes. […] Sensorgram curves were fitted with 1:1 binding model, and affinity and kinetic parameters were obtained using Biacore Insight evaluation 4.0. software.

Row | Compound | Kd [nM]
1 | CC(=O)N[C@@H](Cc1c[nH]c2ccccc12)C(=O)N[C@H](C(=O)N[C@H](C(=O)N[C@H]1CSSC[C@@H](C(=O)N[C@@H](Cc2c[nH]c3ccccc23)C(=O)N2CCC[C@H]2C(N)=O)NC(=O)[C@H](CC(=O)O)NC(=O)[C@H](CCCCNC(=O)CNC(=O)[C@H](CO)NC(=O)CNC(=O)[C@H](CO)NC(=O)CNC(=O)[C@H](CO)NC(=O)CN2CCN(CC(=O)O)CCN(CC(=O)O)CCN(CC(=O)O)CC2)NC(=O)[C@H](Cc2ccc3ccccc3c2)NC(=O)[C@H](CC(N)=O)NC(=O)[C@H](CC2CCNCC2)NC1=O)C1CCCCC1)[C@@H](C)O [compound 407, Ac-W-T-(Chg)-C(3)-[3-(4-piperidinyl)-Ala]-N-(2Nal)-Lys(G-S-G-S-G-S-DOTA)-D-C(3)-W-P-CONH2] (I: Ac-WT[Chg]C[Ala(piperidin-4-yl)]N[2Nal]KDCWP-NH2 / II: {DOTA}-SGSGSG; disulfide I:4-I:10; amide I:8-II:C) | < 1

same assay, conditions: biotinylated human DLL3 on streptavidin sensor chip, 25° C., 1:1 binding model; read-out: SPR KD

Row | Kd [nM] | Compound
2 | < 1 | CC(=O)N[C@@H](Cc1c[nH]c2ccccc12)C(=O)N[C@H](C(=O)N(C)[C@@H](CC(C)(C)C)C(=O)N[C@H]1CSCSC[C@@H](C(=O)N[C@@H](Cc2c[nH]c3ccccc23)C(=O)N2CCC[C@H]2C(N)=O)NC(=O)[C@H](CC(=O)O)NC(=O)[C@H](CCCCNC(=O)CN2CCN(CC(=O)O)CCN(CC(=O)O)CCN(CC(=O)O)CC2)NC(=O)[C@H](Cc2ccc3ccccc3c2)NC(=O)[C@H](CC(N)=O)NC(=O)[C@H](CC2CCN(C(=O)CCOCCOCC[N+](C)(C)C)CC2)NC1=O)[C@@H](C)O [compound 448] (Ac-WT[NMetBuAla]C[Ala(piperidin-4-yl)](Me3N+(CH2)2O(CH2)2O(CH2)2CO)N[2Nal]K(DOTA)DCWP-NH2; linker 4-10 via CH2)
3 | < 1 | CC(=O)N[C@@H](Cc1c[nH]c2ccccc12)C(=O)N[C@H](C(=O)N[C@H](C(=O)N[C@H]1CSSC[C@@H](C(=O)N[C@@H](Cc2c[nH]c3ccccc23)C(=O)N2CCC[C@H]2C(N)=O)NC(=O)[C@H](CC(=O)O)NC(=O)[C@H](CCCCNC(=O)C[C@H]2CC[C@H](NC(=O)CN3CCN(CC(=O)O)CCN(CC(=O)O)CCN(CC(=O)O)CC3)CC2)NC(=O)[C@H](Cc2ccc3ccccc3c2)NC(=O)[C@H](CC(N)=O)NC(=O)[C@H](CC2CCNCC2)NC1=O)C1CCCCC1)[C@@H](C)O [compound 379, Ac-W-T-(Chg)-C(3)-[3-(4-piperidinyl)-Ala]-N-(2Nal)-Lys(Chx-DOTA)-D-C(3)-W-P-CONH2] (Ac-WT[Chg]C[Ala(piperidin-4-yl)]N[2Nal]K(X7)DCWP-NH2; disulfide 4-10)
4 | < 1 | CC(=O)N[C@H](Cc1c[nH]c2ccccc12)C(=O)N[C@@H](C(=O)N[C@@H](CC(C)(C)C)C(=O)N[C@H]1CSCSC[C@H](C(=O)N[C@@H](Cc2c[nH]c3ccccc23)C(=O)N2CCC[C@H]2C(N)=O)NC(=O)[C@H](CC(=O)O)NC(=O)[C@H](CCCCNC(=O)CN2CCN(CC(=O)O)CCN(CC(=O)O)CCN(CC(=O)O)CC2)NC(=O)[C@H](Cc2ccc3ccccc3c2)NC(=O)[C@H](CC(N)=O)NC(=O)[C@H](CC(N)=O)NC1=O)[C@H](C)O [compound 424, Ac-W-T-(t-Bu-Ala)-C(1)-N-N-(2Nal)-Lys(DOTA)-D-[D-Cys(1)]-W-P-CONH2] (Ac-[dW][dT][tBuAla]CNN[2Nal]K(DOTA)D[dC]WP-NH2; linker 4-10 via CH2)
5 | < 1 | CCCC[C@@H](C(=O)N[C@H]1CSSC[C@@H](C(=O)N[C@@H](Cc2c[nH]c3ccccc23)C(=O)N2CCC[C@H]2C(N)=O)NC(=O)[C@H](CC(=O)O)NC(=O)[C@H](CCCCNC(=O)CN2CCN(CC(=O)O)CCN(CC(=O)O)CCN(CC(=O)O)CC2)NC(=O)[C@H](Cc2ccc3ccccc3c2)NC(=O)[C@H](CC(N)=O)NC(=O)[C@H](CC2CCNCC2)NC1=O)N(C)C(=O)[C@@H](NC(=O)[C@H](Cc1c[nH]c2c(OC)cccc12)NC(C)=O)[C@@H](C)O [compound 422, Ac-(7MeO-Trp)-T-(NMe-Nle)-C(3)-[3-(4piperdinyl)-Ala]-N-(2Nal)-Lys(DOTA)-D-C(3)-W-P-CONH2] (Ac-[Trp(7-OMe)]T[NMeNle]C[Ala(piperidin-4-yl)]N[2Nal]K(DOTA)DCWP-NH2; disulfide 4-10)

More lines, now with the values behind:

Row | Compound | Kd [nM]
6 | CC[C@H](C)[C@H](NC(=O)[C@@H](NC(=O)[C@H](Cc1c[nH]c2ccccc12)NC(C)=O)[C@@H](C)O)C(=O)N[C@H]1CSSC[C@@H](C(=O)N[C@@H](Cc2ccc(F)cc2)C(=O)N2CCC[C@H]2C(N)=O)NC(=O)[C@H](CC(=O)O)NC(=O)[C@H](Cc2c[nH]cn2)NC(=O)[C@H](Cc2c[nH]c3ccccc23)NC(=O)[C@H](CC(N)=O)NC(=O)[C@H](CC(N)=O)NC1=O [compound 52, Ac-W-T-I-C(3)-N-N-W-H-D-C(3)-(4Fluoro-F)-P-CONH2] (Ac-WTICNNWHDC[Phe(4-F)]P-NH2; disulfide 4-10) | 10 to 100
7 | CC[C@H](C)[C@H](NC(=O)[C@@H](NC(=O)[C@H](Cc1c[nH]c2ccccc12)NC(=O)[C@H](CCSC)NC(C)=O)[C@@H](C)O)C(=O)N[C@H]1CSSC[C@@H](C(=O)N[C@@H](Cc2c[nH]c3ccccc23)C(=O)N2CCC[C@H]2C(N)=O)NC(=O)[C@H](CC(=O)O)NC(=O)[C@H](Cc2cnc[nH]2)NC(=O)[C@H](Cc2c[nH]c3ccccc23)NC(=O)[C@H](C)NC(=O)[C@H](CC(N)=O)NC1=O [compound 38, Ac-M-W-T-I-C(3)-N-(L-Ala)-W-H-D-C(3)-W-P-CONH2] (Ac-MWTICNAWHDCWP-NH2; disulfide 5-11) | 10 to 100
8 | CC[C@H](C)[C@H](NC(=O)[C@@H](NC(=O)[C@H](Cc1ccc(F)cc1)NC(C)=O)[C@@H](C)O)C(=O)N[C@H]1CSSC[C@@H](C(=O)N[C@@H](Cc2c[nH]c3ccccc23)C(=O)N2CCC[C@H]2C(N)=O)NC(=O)[C@H](CC(=O)O)NC(=O)[C@H](Cc2cnc[nH]2)NC(=O)[C@H](Cc2c[nH]c3ccccc23)NC(=O)[C@H](CC(N)=O)NC(=O)[C@H](CC(N)=O)NC1=O [compound 214, Ac-(4Fluoro-F)-T-I-C(3)-N-N-W-H-D-C(3)-W-P-CONH2] (Ac-[Phe(4-F)]TICNNWHDCWP-NH2; disulfide 4-10) | 100 to 300
9 | CC[C@H](C)[C@H](NC(=O)[C@@H](NC(=O)[C@H](Cc1c[nH]c2ccccc12)NC(C)=O)[C@@H](C)O)C(=O)N[C@H]1CSSC[C@@H](C(=O)N[C@@H](Cc2c[nH]c3ccccc23)C(=O)N2CCC[C@H]2C(N)=O)NC(=O)[C@H](CC(=O)O)NC(=O)[C@H](Cc2c[nH]cn2)NC(=O)[C@H](Cc2ccc(C(F)(F)F)cc2)NC(=O)[C@H](CC(N)=O)NC(=O)[C@H](CC(N)=O)NC1=O [compound 50, Ac-W-T-I-C(3)-N-N-(4CF3-F)-H-D-C(3)-W-P-CONH2] (Ac-WTICNN[Phe(4-CF3)]HDCWP-NH2; disulfide 4-10) | 1 to 10
10 | CSCC[C@H](NC(=O)c1ccc(CNC(=O)CN2CCN(CC(=O)O)CCN(CC(=O)O)CCN(CC(=O)O)CC2)cc1)C(=O)N[C@H](C(=O)N[C@@H](CCCCNC(=O)CC[C@@H]1NC(=O)[C@H](Cc2ccc3ccccc3c2)NC(=O)[C@H](CC(N)=O)NC(=O)[C@H](CC2CCNCC2)NC(=O)[C@@H](NC(=O)[C@@H](NC(=O)[C@@H](NC(=O)[C@H](Cc2c[nH]c3ccccc23)NC(C)=O)[C@@H](C)O)C(C)(C)C)CSSC[C@@H](C(=O)N[C@@H](Cc2c[nH]c3ccccc23)C(=O)N2CCC[C@H]2C(N)=O)NC(=O)[C@H](CC(=O)O)NC1=O)C(=O)O)C(C)C [compound 377] (Ac-WT[Tle]C[Ala(piperidin-4-yl)]N[2Nal]E(X9)DCWP-NH2; disulfide 4-10) | 1 to 10
